The target of one experiment is c-Kit kinase (Homo sapiens, UniProt P10721). Nature of the experiment: c-Kit AlphaScreen kinase assay.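 Further: c-Kit kinase phosphorylating biotinylated poly(Glu,Tyr), ATP near its KM, 1 h reaction at ambient temperature, AlphaScreen chemiluminescence with streptavidin donor and anti-phosphotyrosine acceptor beads, 10-point inhibitor titration.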 The format is biochemical.
The target in experiment [1] is T1, Flt-4 (baculovirus expressed human Flt-4 kinase domain D725-R1298) (Homo sapiens, UniProt P35916).
T1 construct: human Flt-4 kinase domain D725-R1298; host or cells: baculovirus expression
Briefly: flt-4 Alphascreen Tyrosine Kinase assay.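 Further: AlphaScreen chemiluminescence read-out of biotinylated poly(Glu,Tyr) 4:1 phosphorylation via streptavidin donor and PY100 anti-phosphotyrosine acceptor beads, ATP near KM, 1 hr kinase reaction, 10-point dose-response.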 The format is biochemical. To be noted: read-out: flt4 IC50. (In general: In Alpha technology, singlet oxygen from a donor bead excites a nearby acceptor bead.)

The target in experiment [2] is T2, c-Met (baculovirus expressed human c-Met kinase domain P948-S1343) (Homo sapiens, UniProt P08581).
T2 construct: human c-Met kinase domain P948-S1343; host or cells: baculovirus expression
Briefly: c-Met Luciferase-Coupled Chemiluminescent Kinase assay (LCCA).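 Further: kinase activity read as percent ATP left after reaction, by luciferase-luciferin chemiluminescence, with 1 µM ATP and 1 µM poly-EY substrate, 2 h at ambient temperature, 10-point dose-response.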 The format is biochemical.

In experiment [3] the target is T3, Flt-3 (baculovirus expressed human Flt-3 kinase domain R571-S993) (Homo sapiens, UniProt P36888).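 Further: Luciferase-coupled chemiluminescent kinase assay, activity read as percent ATP left after a 3 h reaction at room temperature, ATP near KM, 10-point dose-response.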
T3 construct: human Flt-3 kinase domain R571-S993; host or cells: baculovirus expression
T3 sequence (P36888 571-993): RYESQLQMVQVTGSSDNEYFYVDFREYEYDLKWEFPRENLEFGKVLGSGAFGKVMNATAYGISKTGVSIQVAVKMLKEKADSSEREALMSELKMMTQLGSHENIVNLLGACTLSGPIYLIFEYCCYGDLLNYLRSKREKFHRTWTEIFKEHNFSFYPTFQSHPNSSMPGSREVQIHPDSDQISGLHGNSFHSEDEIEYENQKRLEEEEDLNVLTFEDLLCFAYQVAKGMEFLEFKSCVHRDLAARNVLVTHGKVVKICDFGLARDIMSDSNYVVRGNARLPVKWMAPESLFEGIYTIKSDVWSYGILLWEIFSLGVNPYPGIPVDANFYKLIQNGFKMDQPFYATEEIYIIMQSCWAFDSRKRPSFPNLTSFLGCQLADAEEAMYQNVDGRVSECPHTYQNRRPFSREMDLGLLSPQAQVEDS
Briefly: biochemical. Conditions: read-out: flt3 IC50.
Description: (§1) Kinase activity and compound inhibition are investigated using one or more of the three assay formats described below. The ATP concentrations for each assay are selected to be close to the Michaelis-Menten constant (KM) for each individual kinase. Dose-response experiments are performed at 10 different inhibitor concentrations in a 384-well plate format.
Biochemical activity for flt-3 was assessed using a Luciferase-Coupled Chemiluminescent Kinase assay (LCCA) format. Kinase activity was measured as the percent ATP remaining following the kinase reaction. Remaining ATP was detected by luciferase-luciferin-coupled chemiluminescence. […] The mixture is incubated at ambient temperature for 3 hours after which 20 uL luciferase-luciferin mix is added and the chemiluminescent signal read using a Wallac Victor^2 reader.

Experiment [4] has as its target T4, KDR (baculovirus expressed human KDR kinase domain D807-V1356) (Homo sapiens, UniProt P35968).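 Further: Luciferase-coupled chemiluminescent kinase assay, activity read as percent ATP left after 4 h reaction at ambient temperature, ATP near KM, 10-point dose-response in 384-well plates.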
T4 construct: human KDR kinase domain D807-V1356; host or cells: baculovirus expression
Briefly: biochemical.

T2 sequence (P08581 1011-1343 limits assumed): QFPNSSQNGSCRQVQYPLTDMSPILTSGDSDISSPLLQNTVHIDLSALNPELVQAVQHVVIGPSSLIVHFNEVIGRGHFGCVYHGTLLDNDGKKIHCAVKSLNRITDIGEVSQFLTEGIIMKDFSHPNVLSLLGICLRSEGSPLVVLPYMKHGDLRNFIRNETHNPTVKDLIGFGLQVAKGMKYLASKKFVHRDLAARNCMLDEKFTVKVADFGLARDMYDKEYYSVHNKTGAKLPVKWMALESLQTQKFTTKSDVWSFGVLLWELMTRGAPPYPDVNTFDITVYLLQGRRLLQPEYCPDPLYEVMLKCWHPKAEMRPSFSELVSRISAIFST
T1 sequence (P35916 725-1298 isoform P35916-1): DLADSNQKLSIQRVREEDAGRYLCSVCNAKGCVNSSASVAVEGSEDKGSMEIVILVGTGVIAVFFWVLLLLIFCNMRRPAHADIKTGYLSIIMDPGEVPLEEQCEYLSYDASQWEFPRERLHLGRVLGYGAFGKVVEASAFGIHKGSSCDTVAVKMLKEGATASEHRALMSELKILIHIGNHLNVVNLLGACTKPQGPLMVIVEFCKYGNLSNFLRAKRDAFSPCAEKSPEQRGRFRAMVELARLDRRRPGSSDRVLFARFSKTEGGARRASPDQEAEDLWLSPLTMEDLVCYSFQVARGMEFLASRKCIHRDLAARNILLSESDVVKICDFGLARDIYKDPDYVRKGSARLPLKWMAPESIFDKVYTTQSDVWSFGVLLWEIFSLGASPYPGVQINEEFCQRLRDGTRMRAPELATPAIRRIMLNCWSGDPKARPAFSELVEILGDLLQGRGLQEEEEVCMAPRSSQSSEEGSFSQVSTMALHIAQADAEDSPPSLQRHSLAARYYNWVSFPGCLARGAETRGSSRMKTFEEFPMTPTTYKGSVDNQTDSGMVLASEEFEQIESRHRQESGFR
Chain of c-Kit kinase (P10721 26-976): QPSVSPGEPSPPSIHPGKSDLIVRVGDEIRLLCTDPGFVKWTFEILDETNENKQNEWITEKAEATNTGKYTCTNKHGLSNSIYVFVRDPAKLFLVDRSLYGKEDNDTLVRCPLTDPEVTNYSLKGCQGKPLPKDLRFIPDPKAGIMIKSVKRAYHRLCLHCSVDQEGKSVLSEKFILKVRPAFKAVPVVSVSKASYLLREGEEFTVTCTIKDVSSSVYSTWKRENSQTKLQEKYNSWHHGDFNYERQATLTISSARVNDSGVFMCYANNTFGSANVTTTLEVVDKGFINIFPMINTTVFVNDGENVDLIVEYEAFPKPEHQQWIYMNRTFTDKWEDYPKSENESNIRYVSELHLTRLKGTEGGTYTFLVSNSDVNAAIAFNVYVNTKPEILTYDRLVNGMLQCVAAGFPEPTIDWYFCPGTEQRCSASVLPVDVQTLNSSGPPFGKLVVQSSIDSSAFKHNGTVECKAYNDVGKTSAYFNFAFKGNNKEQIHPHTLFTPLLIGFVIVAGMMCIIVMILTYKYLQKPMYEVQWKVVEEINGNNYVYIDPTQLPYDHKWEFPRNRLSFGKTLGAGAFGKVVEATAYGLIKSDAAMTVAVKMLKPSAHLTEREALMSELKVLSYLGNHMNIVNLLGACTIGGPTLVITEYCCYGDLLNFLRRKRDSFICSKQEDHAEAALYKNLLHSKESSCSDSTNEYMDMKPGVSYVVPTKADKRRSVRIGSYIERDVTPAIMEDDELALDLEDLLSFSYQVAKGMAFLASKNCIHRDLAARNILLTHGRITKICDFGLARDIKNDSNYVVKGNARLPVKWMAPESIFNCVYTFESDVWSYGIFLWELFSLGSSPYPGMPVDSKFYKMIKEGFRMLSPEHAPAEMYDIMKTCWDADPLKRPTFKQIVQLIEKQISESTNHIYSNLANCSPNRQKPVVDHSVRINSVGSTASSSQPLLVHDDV
T4 sequence (P35968 807-1356): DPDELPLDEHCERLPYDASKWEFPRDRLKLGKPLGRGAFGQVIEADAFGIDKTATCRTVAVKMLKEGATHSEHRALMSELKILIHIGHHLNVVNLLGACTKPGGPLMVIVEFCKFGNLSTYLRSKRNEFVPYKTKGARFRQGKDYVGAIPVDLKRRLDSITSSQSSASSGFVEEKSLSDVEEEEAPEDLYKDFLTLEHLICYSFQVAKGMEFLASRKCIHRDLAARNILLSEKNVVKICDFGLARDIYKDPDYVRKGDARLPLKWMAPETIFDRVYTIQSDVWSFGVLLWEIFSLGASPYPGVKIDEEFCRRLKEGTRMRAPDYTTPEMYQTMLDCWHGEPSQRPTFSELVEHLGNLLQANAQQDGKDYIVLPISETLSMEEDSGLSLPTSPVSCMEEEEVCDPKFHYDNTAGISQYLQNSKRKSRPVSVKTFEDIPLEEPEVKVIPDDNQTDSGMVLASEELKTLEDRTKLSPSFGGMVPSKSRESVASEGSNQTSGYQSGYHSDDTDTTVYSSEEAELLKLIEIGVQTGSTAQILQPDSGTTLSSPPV
Description for c-Kit kinase: as §1
AlphaScreen™ (Perkin Elmer) technology is a proximity assay employing microparticles. Singlet oxygen derived from a donor bead following laser excitation results in chemiluminescence when in proximity (100 Å) to an acceptor bead due to biomolecular interactions.
c-Kit biochemical activity was assessed using AlphaScreen™ (Perkin Elmer) technology, described above. Test compounds, ATP, biotinylated poly(Glu, Tyr) and c-Kit kinase were combined in a volume of 20 μL in a 384-well white, medium binding microtiter plate (Greiner). Reaction mixtures were incubated for 1 hr at ambient temperature. […] After 16 hr incubation at ambient temperature plates were read using an AlphaQuest reader (Perkin Elmer).

As usually defined, the IC50 is the concentration that inhibits the measured activity by half. Take `COc1cc2c(Oc3ccc(NC(=O)C(=O)N4CCCC4)cc3F)ccnc2cc1OCC1CCNCC1` [Example 299, N-[3-fluoro-4-({6-(methyloxy)-7-[(piperidin-4-ylmethyl)oxy]quinolin-4-yl}oxy)phenyl]-2-oxo-2-pyrrolidin-1-ylacetamide]: the IC50 on c-Kit kinase was 50 to 500 nM; in experiment [1] it was 50 to 500 nM; in experiment [2], less than 50 nM; in experiment [3] it was 50 to 500 nM; in experiment [4], 50 to 500 nM.
As to `CCN(C)C(=O)C(=O)Nc1ccc(Oc2ccnc3cc(OCC4CCNCC4)c(OC)cc23)c(F)c1` [Example 300, N-ethyl-N′-[3-fluoro-4-({6-(methyloxy)-7-[(piperidin-4-ylmethyl)oxy]quinolin-4-yl}oxy)phenyl]-N-methylethanediamide], the IC50 was 500 to 5000 nM on c-Kit kinase; 50 to 500 nM in experiment [1]; less than 50 nM in experiment [2]; 50 to 500 nM in experiment [3]; 50 to 500 nM in experiment [4].
`COc1cc2nccc(Oc3ncc(NC(=O)C4(C(=O)NCc5ccccc5)CC4)cc3Cl)c2cc1OC` [Example 301, N-(6-{[6,7-bis(methyloxy)quinolin-4-yl]oxy}-5-chloropyridin-3-yl)-N′-(phenylmethyl)cyclopropane-1,1-dicarboxamide]: the IC50 against c-Kit kinase was 50 to 500 nM; in experiment [1] it was 50 to 500 nM; in experiment [2], less than 50 nM; in experiment [3], 50 to 500 nM; in experiment [4], 500 to 5000 nM.
For the compound `O=C(Nc1ccc(F)cc1)C1(C(=O)Nc2ccc(Oc3ccnc4cc(Cl)ccc34)c(F)c2)CC1` [Example 303, N-{4-[(7-chloroquinolin-4-yl)oxy]-3-fluorophenyl}-N′-(4-fluorophenyl)cyclopropane-1,1-dicarboxamide], the IC50 at c-Kit kinase was 500 to 5000 nM; in experiment [1] it was 50 to 500 nM; in experiment [2], less than 50 nM; in experiment [3], 500 to 5000 nM; in experiment [4] it was less than 50 nM.
`CCN(CC)CCOc1cc2nccc(Oc3ccc(NC(=O)C4(C(=O)Nc5ccc(F)cc5)CC4)cc3F)c2cc1OC` [Example 304, N-(4-{[7-{[2-(diethylamino)ethyl]oxy}-6-(methyloxy)quinolin-4-yl]oxy}-3-fluorophenyl)-N′-(4-fluorophenyl)cyclopropane-1,1-dicarboxamide]: the IC50 (against c-Kit kinase; in experiment [1]; in experiment [2]; in experiment [3]; in experiment [4]) was less than 50 nM throughout.
`COc1cc2nccc(Oc3ccc(NC(=O)C4(C(=O)Nc5ccc(F)cc5)CC4)c(C)n3)c2cc1OC` [Example 306, N-(6-{[6,7-bis(methyloxy)quinolin-4-yl]oxy}-2-methylpyridin-3-yl)-N′-(4-fluorophenyl)cyclopropane-1,1-dicarboxamide]: the IC50 was 50 to 500 nM at c-Kit kinase; 50 to 500 nM in experiment [1]; less than 50 nM in experiment [2]; 500 to 5000 nM in experiment [3]; 50 to 500 nM in experiment [4].
For `CCN(CC)CCOc1cc2nccc(Oc3ccc(NC(=O)C4(C(=O)Nc5ccc(F)cc5)CCC4)cc3F)c2cc1OC` [Example 307, N-(4-{[7-{[2-(diethylamino)ethyl]oxy}-6-(methyloxy)quinolin-4-yl]oxy}-3-fluorophenyl)-N′-(4-fluorophenyl)cyclobutane-1,1-dicarboxamide], the IC50 against c-Kit kinase was less than 50 nM; in experiment [1], less than 50 nM; in experiment [2], less than 50 nM; in experiment [3], 50 to 500 nM; in experiment [4] it was less than 50 nM.
As for `O=C(Nc1ccc(F)cc1)C1(C(=O)Nc2ccc(Oc3ccnc4cc(Cl)ccc34)cc2)CC1` [Example 308, N-{4-[(7-chloroquinolin-4-yl)oxy]phenyl}-N′-(4-fluorophenyl)cyclopropane-1,1-dicarboxamide], the half-maximal inhibitory concentration (IC50) at c-Kit kinase was 50 to 500 nM; in experiment [1], 50 to 500 nM; in experiment [2], less than 50 nM; in experiment [3], 500 to 5000 nM; in experiment [4], less than 50 nM.
As to `COc1cc2c(Oc3ncc(NC(=O)C4(C(=O)Nc5ccc(F)cc5)CC4)cc3Cl)ccnc2cc1OCc1ccccc1` [Example 309, N-[5-chloro-6-({6-(methyloxy)-7-[(phenylmethyl)oxy]quinolin-4-yl}oxy)pyridin-3-yl]-N′-(4-fluorophenyl)cyclopropane-1,1-dicarboxamide], the IC50 on c-Kit kinase is 500 to 5000 nM; in experiment [1], 500 to 5000 nM; in experiment [2], less than 50 nM; in experiment [3] it was 50 to 500 nM; in experiment [4], 500 to 5000 nM.
In the case of `COc1cc2ncnc(Oc3ccc(NC(=O)C4(C(=O)Nc5ccc(F)cc5)CC4)cc3)c2cc1OC` [Example 310, N-(4-{[6,7-bis(methyloxy)quinazolin-4-yl]oxy}phenyl)-N′-(4-fluorophenyl)cyclopropane-1,1-dicarboxamide], the IC50 (at c-Kit kinase; in experiment [1]; in experiment [2]; in experiment [3]; in experiment [4]) was less than 50 nM each time.
In the case of `COc1cc2ncnc(Oc3ccc(NC(=O)C4(C(=O)Nc5ccc(F)cc5)CC4)cc3F)c2cc1OC` [Example 311, N-(4-{[6,7-bis(methyloxy)quinazolin-4-yl]oxy}-3-fluorophenyl)-N′-(4-fluorophenyl)cyclopropane-1,1-dicarboxamide], the IC50 at c-Kit kinase was 50 to 500 nM; in experiment [1], less than 50 nM; in experiment [2] it was less than 50 nM; in experiment [3], less than 50 nM; in experiment [4] it was less than 50 nM.
Take `COc1cc2c(Oc3ccc(NC(=O)C4(C(=O)Nc5ccc(F)cc5)CC4)cc3F)ccnc2cc1OCCCN1CCCCC1` [Example 313, N-[3-fluoro-4-({6-(methyloxy)-7-[(3-piperidin-1-ylpropyl)oxy]quinolin-4-yl}oxy)phenyl]-N′-(4-fluorophenyl)cyclopropane-1,1-dicarboxamide]: the IC50 (on c-Kit kinase; in experiment [1]; in experiment [2]; in experiment [3]; in experiment [4]) was less than 50 nM each time.
For the compound `COc1cc2c(Oc3ccc(NC(=O)C4(C(=O)Nc5ccc(F)cc5)CCC4)cc3F)ccnc2cc1OCCCN1CCCCC1` [Example 314, N-[3-fluoro-4-({6-(methyloxy)-7-[(3-piperidin-1-ylpropyl)oxy]quinolin-4-yl}oxy)phenyl]-N′-(4-fluorophenyl)cyclobutane-1,1-dicarboxamide], the IC50 at c-Kit kinase was less than 50 nM; in experiment [1], less than 50 nM; in experiment [2] it was less than 50 nM; in experiment [3] it was 50 to 500 nM; in experiment [4] it was less than 50 nM.
Consider `COc1cc2c(Oc3ccc(NC(=O)C4(C(=O)Nc5ccc(F)cc5)CC4)cc3F)ncnc2cc1OCCCN1CCOCC1` [Example 315, N-[3-fluoro-4-({6-(methyloxy)-7-[(3-morpholin-4-ylpropyl)oxy]quinazolin-4-yl}oxy)phenyl]-N′-(4-fluorophenyl)cyclopropane-1,1-dicarboxamide], for which the IC50 (on c-Kit kinase; in experiment [1]; in experiment [2]; in experiment [3]; in experiment [4]) was less than 50 nM each time.
Turning to `COc1cc2c(Oc3ccc(NC(=O)C4(C(=O)Nc5ccc(F)cc5)CC4)cc3F)ncnc2cc1OCC1CCN(C)CC1` [Example 316, N-{3-fluoro-4-[(6-(methyloxy)-7-{[(1-methylpiperidin-4-yl)methyl]oxy}quinazolin-4-yl)oxy]phenyl}-N′-(4-fluorophenyl)cyclopropane-1,1-dicarboxamide], the IC50 (at c-Kit kinase; in experiment [1]; in experiment [2]; in experiment [3]; in experiment [4]) was less than 50 nM each time.
Regarding `COc1cc2nccc(Oc3ccc(NC(=O)C4(C(=O)Nc5ccc(F)cc5)CC4)c(C)c3)c2cc1OC` [Example 317, N-(4-{[6,7-bis(methyloxy)quinolin-4-yl]oxy}-2-methylphenyl)-N′-(4-fluorophenyl)cyclopropane-1,1-dicarboxamide], the IC50 against c-Kit kinase is less than 50 nM; in experiment [1] it was less than 50 nM; in experiment [2], less than 50 nM; in experiment [3], 500 to 5000 nM; in experiment [4] it was less than 50 nM.
With `COc1cc2c(Oc3ccc(NC(=O)C4(C(=O)Nc5ccc(F)cc5)CC4)c(C)n3)ccnc2cc1OCCCN1CCOCC1` [Example 318, N-(4-fluorophenyl)-N′-[2-methyl-6-({6-(methyloxy)-7-[(3-morpholin-4-ylpropyl)oxy]quinolin-4-yl}oxy)pyridin-3-yl]cyclopropane-1,1-dicarboxamide], the half-inhibitory concentration (IC50) was 50 to 500 nM against c-Kit kinase; 50 to 500 nM in experiment [1]; less than 50 nM in experiment [2]; 50 to 500 nM in experiment [3]; less than 50 nM in experiment [4].
